# Reference: paper PMC12749127 (Scientific Reports, 2025)
# Key:
# IMPA = details: in vitro assays; cited from earlier work
# recombinant human IMPA = details: read-out: inhibition constant (Ki); cited from earlier work
# recombinant bovine IMPA = details: read-out: inhibition constant (Ki); cited from earlier work
# myo-inositol levels = assay: Cellular myo-inositol levels; format: cell-based; details: 30 mM LiCl or 25 µM ebselen
# PI(4)P = assay: Immunofluorescence of PI; format: cell-based, human; details: imHC cells, 24 hours of treatment
# [1] = molecular target: T1, recombinant human inositol monophosphatase 1 (IMPA1) (Homo sapiens, UniProt P29218); assay: In vitro enzymatic assay of IMPA activity; format: biochemical
# T1 sequence (P29218 1-277): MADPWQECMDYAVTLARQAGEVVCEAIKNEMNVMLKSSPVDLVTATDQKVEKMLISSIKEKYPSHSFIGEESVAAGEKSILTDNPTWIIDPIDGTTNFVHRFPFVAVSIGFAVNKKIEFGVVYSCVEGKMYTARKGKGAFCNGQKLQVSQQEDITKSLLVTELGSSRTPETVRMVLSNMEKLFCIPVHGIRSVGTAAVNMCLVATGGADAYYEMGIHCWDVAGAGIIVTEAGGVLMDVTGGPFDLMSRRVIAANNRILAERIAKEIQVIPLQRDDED
# DENV-2 = assay: IMPA1 silencing using siRNA, DENV-2 virus titer in imHC cells; format: cell-based; details: Dengue virus, DENV2, read-out: decrease of inhibitory effect of ebselen in si_IMPA1-silenced cells
# PI(4)P and ZIKV-NS1 = assay: Immunofluorescence of PI; format: cell-based; details: ZIKV-infected imHC cells, MOI 1, 48 hpi, ebselen treatment
compound,measurement,setting,value
"CC(Oc1ccc(O)cc1)(P(=O)(O)O)P(=O)(O)O [L-690,330]",potency relative to lithium (in words),IMPA,approximately a thousand-fold greater potency than lithium
same,Ki,recombinant human IMPA,0.27 µM
same,Ki,recombinant bovine IMPA,0.19 µM
[Cl-].[Li+] [LiCl],myo-inositol levels vs untreated control (in words),myo-inositol levels,significant reduction
O[C@H]1[C@H](O)[C@@H](O)[C@H](O)[C@@H](O)[C@H]1O [inositol],PI(4)P levels following the addition of inositol (in words),PI(4)P,increased levels
O=c1c2ccccc2[se]n1-c1ccccc1 [Ebselen],myo-inositol levels vs untreated control (in words),myo-inositol levels,significant reduction
same,IC50,[1],0.95 µM
same,inhibition at 20 µM,DENV-2,~16%
same,PI(4)P levels (in words),PI(4)P and ZIKV-NS1,reduction
same,ZIKV-NS1 protein expression (in words),PI(4)P and ZIKV-NS1,reduction
